# According to patent US9655840B2, “Wound care products” (RIGSHOSPITALET, COPENHAGEN UNIVERSITY HOSPITAL, priority 2009, dated 2017):
# Where a name gives a salt, the structure may show the parent alone. Read-outs that look alike come from different tables or passages of the source.
# Assays:
# [1] = system: S. aureus 8325-4 biofilm
# Description: (§1) The wild-type P. aeruginosa PAO1 used for the planktonic and biofilm experiments was obtained from the Pseudomonas Genetic Stock Center (www.pseudomonas.med.ecu.edu, strain PAO0001). The wild-type S. aureus 8325-4, used for planktonic and biofilm experiments was described by Novick, R. P. 1967. For plating, Luria broth (LB) medium mix with 2.0% agar was used. For all experiments including bacterial biofilms, AB minimal medium supplemented with glucose was used except if different is mentioned. […] The continuous flow system is based on once through flow chambers perfused with sterile AB minimal medium containing 0.3 mM glucose as described by Christensen et al. (1999). Continuous flow biofilm tolerance to acetic acid was assessed by growing P. aeruginosa or S. aureus biofilms for three days, then subsequently at day three to four supplementing the AB minimal medium with different concentrations of acetic acid or HCl (HCL served as a as control to acetic acid treatments). […] Due to the buffer capacity of the AB minimal medium used, the pH of the solution became 4.33. […] After the treatment the biofilm biomasses were harvested mechanically from the flow chambers and plated on LB plates for determination of viability. […] The kinetics of antimicrobial activity against mature biofilms was tested by treating a 3-day-old continuous flow chamber biofilms of either P. aeruginosa with 0.5% or S. aureus with 1.0% acetic acid for 24 hours. Due to the buffer capacity of the AB minimal medium used the pH of the solution became 4.33. […] After the treatment the biofilms were harvested mechanically, by scraping with a sterile scalpel, from the flow chambers and plated on LB plates for determination of viable counts.
# [2] = system: P. aeruginosa PAO1 biofilm; experiment: continuous flow chamber biofilm, 3-day-old, harvested and plated on LB plates for viability; type: cell-based
# Description: as §1
# [3] = system: P. aeruginosa biofilm; experiment: static 24 hour old biofilm in microtiter dishes, CFU after treatment; type: cell-based; details: for antimicrobial effect on static biofilm (CFU): 0.5% acetic acid; for synergistic antimicrobial effect in combination with acetic acid: combined with 0.5% acetic acid, static biofilm
# Description: AB minimal medium without acetic acid adjusted to different pH values was used as control.
# AB minimal medium supplemented with increasing concentrations of tobramycin served as control. The biofilm were harvested and plated on LB plates to determine the CFU after treatment (For visual appearance “no growth” is arbitrarily given a CFU value of 2).
# AB minimal medium without acetic acid, but supplemented with increasing concentrations of tobramycin served as control.
# The wild-type P. aeruginosa PAO1 used for the planktonic and biofilm experiments was obtained from the Pseudomonas Genetic Stock Center (www.pseudomonas.med.ecu.edu, strain PAO0001). The wild-type S. aureus 8325-4, used for planktonic and biofilm experiments was described by Novick, R. P. 1967.
# For plating, Luria broth (LB) medium mix with 2.0% agar was used. For all experiments including bacterial biofilms, AB minimal medium supplemented with glucose was used except if different is mentioned.
# Planktonic cultures were grown in shake flasks at 37° C.
# Static biofilm tolerance to acetic acid was assessed by exchanging the AB minimal medium of 24 h old biofilms with AB minimal medium supplemented with different concentrations of acetic acid or HCl as control. To raise the pH of either acetic acid or HCl, NaOH was added in different concentrations.
# To elucidate a synergistic antimicrobial effect of acetic acid and antibiotics, static biofilms of P. aeruginosa were grown for 24 hours prior to subsequent treatment with increasing concentrations of tobramycin and 0.5% acetic acid in the pH interval 3-6.85. The pH was adjusted by supplementing the AB minimal medium with either HCl or NaOH.
# [4] = system: clinical non-mucoid P. aeruginosa isolate biofilm
# [5] = system: clinical mucoid P. aeruginosa isolate biofilm
# [6] = 0.5% acetic acid, 24 hours, AB minimal medium, pH 4.33
# [7] = 1.0% acetic acid, 24 hours, AB minimal medium, pH 4.33
compound,measurement,setting,value
CC(=O)O [acetic acid],eradication of mature biofilm (viability by plating),[1]; [6],reduced the number of viable cells
same,eradication of mature biofilm (viability by plating),[1]; 1.0% acetic acid in sterile miliQ water,Complete eradication
same,eradication of mature biofilm (viability by plating),[1]; [7],complete eradication
same,time to complete killing of all bacteria,"[1]; 1.0% acetic acid, AB minimal medium, pH 4.33",3 h
same,eradication of mature biofilm (viability by plating),[2]; 0.5% acetic acid in sterile miliQ water,Complete eradication
same,eradication of mature biofilm (viability by plating),[2]; [6],completely eradicated
same,time to complete killing of all bacteria,"[2]; 0.5% acetic acid, AB minimal medium, pH 4.33",3 h
same,eradication of mature biofilm (viability by plating),[2]; [7],completely eradicated
same,antibacterial effect on static biofilm (CFU),"[3]; 0.5% acetic acid alone, pH 6.85",no antibacterial effect
same,antimicrobial effect on static biofilm (CFU),[3]; pH 5,reduced effect
same,antimicrobial effect on static biofilm (CFU),[3]; pH 5.5 and above,no effect
same,antimicrobial effect on static biofilm (CFU),[3]; pH interval 3-4.76,eradicated biofilms
same,eradication of biofilm,[4],eradicates the biofilms
same,eradication of biofilm,[5],eradicates the biofilms
colistin [reference compound],synergistic antimicrobial effect in combination with acetic acid,[3],analogous synergistic effects
"Cl [HCl, reference compound]",eradication of mature biofilm (viability by plating),"[2]; AB minimal medium adjusted to pH 4.33 using HCl, 24 hours (control)",had no effect
"NC[C@H]1O[C@H](O[C@H]2[C@H](O)[C@@H](O[C@H]3O[C@H](CO)[C@@H](O)[C@H](N)[C@H]3O)[C@H](N)C[C@@H]2N)[C@H](N)C[C@@H]1O [tobramycin, reference compound]",reduction of bacterial viability,"[3]; tobramycin alone, concentrations above 12.5 μg/ml",5 fold
"O=C(O)c1cn(C2CC2)c2cc(N3CCNCC3)c(F)cc2c1=O [ciprofloxaxine, reference compound]",synergistic antimicrobial effect in combination with acetic acid,[3],analogous synergistic effects
